From EP3445348B1, “FLUORESCENT COMPOUNDS, PRODUCTION METHODS AND USES THEREOF” (Universidade de Aveiro, priority 2016, dated 2017)

Tests used:
[1] = comparison compound; cited from earlier work
[2] = system: HeLa cells; test: Resazurin metabolic cell viability assay, HeLa cells; format: cell-based; settings: Human HeLa live cells, 24h, 1×10^-5 mol.L^-1
Excerpt: (§1) The following figures provide preferred embodiments for the present disclosure and should not be seen as limiting the scope of the disclosure. • Figure 1: Scheme of the fluorophore precursors synthesis. • Figure 2: Synthesis of the fluorophores. • Figure 3: Absorption and emission spectra of some of the fluorophores in a dichloromethane (DCM) solution wherein black squares represent the absorption of (1E,4E)-1,5-bis[4-(dimethylamino)phenyl]penta-1,4-dien-3-one; black circles represent the absorption of (2E,6E)-2,6-bis[4-(dimethylamino)benzylidene]cyclohexanone; black diamonds represent the absorption of 2,6-bis[3-bromo-4-(dimethylamino)benzylidene]cyclohexanone; black triangles pointing up represent the absorption of (1E,4E)-1,5-bis[3-bromo-4-(dimethylamino)phenyl]penta-1,4-dien-3-one; black triangles pointing down represent the absorption of (1E,4E)-1,5-bis[3-chloro-4-(dimethylamino)phenyl]penta-1,4-dien-3-one; black stars represent the absorption of 2,6-bis[3-chloro-4-(dimethylamino)benzylidene]cyclohexanone; open squares represent the emission of (1E,4E)-1,5-bis[4-(dimethylamino)phenyl]penta-1,4-dien-3-one; open circles represent the emission of (2E,6E)-2,6-bis[4-(dimethylamino)benzylidene]cyclohexanone; open diamonds represent the emission of 2,6-bis[3-bromo-4-(dimethylamino)benzylidene]cyclohexanone; open triangles pointing up represent the absorption of (1E,4E)-1,5-bis[3-bromo-4-(dimethylamino)phenyl]penta-1,4-dien-3-one; open triangles pointing down represent the absorption of (1E,4E)-1,5-bis[3-chloro-4-(dimethylamino)phenyl]penta-1,4-dien-3-one; open stars represent the absorption of 2,6-bis[3-chloro-4-(dimethylamino)benzylidene]cyclohexanone. • Figure 4: Sample distributions of two cyclic fluorophores: (2E,6E)-2,6-bis[3-bromo-4-(dimethylamino)benzylidene]cyclohexanone labelled as cyclic-Br and (2E,6E)-2,6-bis[3-chloro-4-(dimethylamino)benzylidene]cyclohexanone labelled as cyclic-Cl (orange pseudocolour) in HeLa cells cultured on coverslips and incubated alive and for 1h with 10^-5 mol.L^-1 of the compounds. The laser line 458 nm was used to excite and the confocal Zeiss LSM-510 META 415 to 750 nm detector used to detect the fluorophores. The nuclear DAPI is used as a counterstaining dye. • Figure 5: Co-localization of the compounds (1E,4E)-1,5-bis[4-(dimethylamino)phenyl]penta-1,4-dien-3-one, labelled as linear-H and (2E,6E)-2,6-bis[3-chloro-4-(dimethylamino)benzylidene]cyclohexanone, labelled as cyclic-Cl with the Trans-Golgi Network (TGN) marker Syntaxin-6, which was Texas Red (red colour) and Alexa-405 (cyan pseudocolour) labelled by using secondary antibodies. DAPI (blue colour) was used as nuclear marker. HeLa cells were incubated in particular for 1h with 1-2×10^-5 mol.L^-1 of the fluorophores, before being fixed. The laser line 405 nm, in particular at 10-20% of its power was used to excite the fluorophores. […] A. Cell viability was determined using the metabolic Resazurin assay, and data (resazurin final O.D.±SD of four independent experiments) presented graphically as percentages of control cells (not incubated with the compounds), wherein the control is labelled as Ctrl; (1E,4E)-1,5-bis[4-(dimethylamino)phenyl]penta-1,4-dien-3-one is labelled as L-H; (1E,4E)-1,5-bis[3-chloro-4-(dimethylamino)phenyl]penta-1,4-dien-3-one is labelled as L-Cl; (1E,4E)-1,5-bis[3-bromo-4-(dimethylamino)phenyl]penta-1,4-dien-3-one is labelled as L-Br; (2E,6E)-2,6-bis[4-(dimethylamino)benzylidene]cyclohexanone labelled is labelled as C-H; 2,6-bis[3-chloro-4-(dimethylamino)benzylidene]cyclohexanone is labelled as C-Cl; 2,6-bis[3-bromo-4-(dimethylamino)benzylidene]cyclohexanone is labelled as C-Br. Statistical significance using the student-t test: *p<0.05; **p<0.01. B. Microphotograph of Cyclic-Cl distribution in HeLa and MC3T3 cells upon 24h of exposure to the compounds. Microscope settings used: a 40×/1.3 oil objective; HFT 405/488/633; in particular a 405 nm laser line at 40% of its power. […]

[3] = system: MC3T3 live cells; test: Resazurin metabolic cell viability assay, MC3T3 cells; format: cell-based, rat; settings: 24h, 1×10^-5 mol.L^-1
Excerpt: as §1

| SMILES | storage stability [1] | cytotoxicity (cell viability, resazurin reduction) [2] | cytotoxicity (cell viability, resazurin reduction) [3] |
| --- | --- | --- | --- |
| CCN(CC)c1ccc2nc3c4ccccc4c(=O)cc-3oc2c1 [Nile Red, 9-diethylamino-5H-benzo[a]phenoxazine-5-one] | stable if kept at -20 °C | – | – |
| CN(C)c1ccc(/C=C2\CCC/C(=C\c3ccc(N(C)C)c(Br)c3)C2=O)cc1Br [cyclic-Br, (2E,6E)-2,6-bis[3-bromo-4-(dimethylamino)benzylidene]cyclohexanone] | – | not cytotoxic | not cytotoxic |
| CN(C)c1ccc(/C=C2\CCC/C(=C\c3ccc(N(C)C)c(Cl)c3)C2=O)cc1Cl [cyclic-Cl, (2E,6E)-2,6-bis[3-chloro-4-(dimethylamino)benzylidene]cyclohexanone] | – | not cytotoxic | not cytotoxic |
| CN(C)c1ccc(/C=C2\CCC/C(=C\c3ccc(N(C)C)cc3)C2=O)cc1 [cyclic-H, (2E,6E)-2,6-bis[4-(dimethylamino)benzylidene]cyclohexanone] | – | not cytotoxic | not cytotoxic |
| CN(C)c1ccc(/C=C/C(=O)/C=C/c2ccc(N(C)C)c(Br)c2)cc1Br [linear-Br, (1E,4E)-1,5-bis[3-bromo-4-(dimethylamino)phenyl]penta-1,4-dien-3-one] | – | not cytotoxic | not cytotoxic |
| CN(C)c1ccc(/C=C/C(=O)/C=C/c2ccc(N(C)C)c(Cl)c2)cc1Cl [linear-Cl, (1E,4E)-1,5-bis[3-chloro-4-(dimethylamino)phenyl]penta-1,4-dien-3-one] | – | not cytotoxic | not cytotoxic |
| CN(C)c1ccc(/C=C/C(=O)/C=C/c2ccc(N(C)C)cc2)cc1 [linear-H, (1E,4E)-1,5-bis[4-(dimethylamino)phenyl]penta-1,4-dien-3-one] | – | not cytotoxic | not cytotoxic |
